The text below walks through data of ChEMBL document CHEMBL3046160, “Insecticidal Activities of the Enantiomers of Asymmetric 1-[1-(6-Chloro-3-pyridyl)ethyl]-2-nitroiminoimidazolidine against American Cockroach, Cucurbit Leaf Beetle, Green Rice Leafhopper and Green Peach Aphid Following Injection, Dipping and Spraying” (2004).

In assay [1] the test system is Periplaneta americana. The assay can be described thus: Insecticidal activity against Periplaneta americana (American cockroach) compound administered through injection into abdomen. The assay is classed as functional.
The subject of assay [2] is Myzus persicae. The assay can be described thus: Insecticidal activity against Myzus persicae (green peach aphid) in two-leaf stage eggplant assessed as mortality at 1.6 ppm after 7 days. To be noted: 168 h. The class given is functional.
The test system of assay [3] is Nephotettix cincticeps. The assay can be described thus: Insecticidal activity against Nephotettix cincticeps (green rice leafhopper) in compound-sprayed rice plant assessed as mortality at 1.6 ppm after 2 to 7 days. The assay is classed as functional.
In assay [4] the test system is Aulacophora. The assay can be described thus: Insecticidal activity against second-instar larvae of Aulacophora femoralis (cucurbit leaf beetle) in compound-treated cucumber leaf assessed as mortality at 1.6 ppm after 2 to 7 days. The class given is functional.
Assay [5] has as its target T1, Nicotinic acetylcholine receptor alpha 5 subunit (Musca domestica) (UniProt A9XFY4).
T1 sequence (whole entry): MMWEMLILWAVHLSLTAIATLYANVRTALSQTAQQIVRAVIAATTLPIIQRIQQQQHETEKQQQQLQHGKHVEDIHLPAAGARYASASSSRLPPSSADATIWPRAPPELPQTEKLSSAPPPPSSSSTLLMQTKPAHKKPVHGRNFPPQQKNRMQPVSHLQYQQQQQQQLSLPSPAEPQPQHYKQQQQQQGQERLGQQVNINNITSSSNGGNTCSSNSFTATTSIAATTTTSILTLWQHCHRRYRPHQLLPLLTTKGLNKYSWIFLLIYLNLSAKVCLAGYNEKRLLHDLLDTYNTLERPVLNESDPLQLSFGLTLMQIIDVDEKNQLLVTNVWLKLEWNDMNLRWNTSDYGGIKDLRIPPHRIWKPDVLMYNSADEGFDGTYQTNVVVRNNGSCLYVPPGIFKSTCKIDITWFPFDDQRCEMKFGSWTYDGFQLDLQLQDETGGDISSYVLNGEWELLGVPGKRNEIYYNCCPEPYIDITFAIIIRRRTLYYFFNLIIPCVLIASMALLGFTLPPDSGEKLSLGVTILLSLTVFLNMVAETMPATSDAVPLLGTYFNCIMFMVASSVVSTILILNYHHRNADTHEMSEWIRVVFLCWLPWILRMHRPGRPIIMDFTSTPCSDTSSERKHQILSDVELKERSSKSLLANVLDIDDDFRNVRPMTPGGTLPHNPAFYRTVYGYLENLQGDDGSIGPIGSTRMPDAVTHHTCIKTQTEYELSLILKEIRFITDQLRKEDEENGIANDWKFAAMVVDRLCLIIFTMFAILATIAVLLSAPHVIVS
The assay can be described thus: Displacement of [3H]IMI from Musca domestica (house fly) head membrane nicotinic acetylcholine receptor. (In general: Loss of bound radioactivity is the signal in a displacement assay; it reports binding, not function.)

The test system of assay [6] is Nephotettix cincticeps. The assay can be described thus: Insecticidal activity against Nephotettix cincticeps (green rice leafhopper) in compound-sprayed rice plant assessed as mortality at 8 ppm after 2 to 7 days. The class given is functional.
The test system of assay [7] is Aulacophora. The assay can be described thus: Insecticidal activity against second-instar larvae of Aulacophora femoralis (cucurbit leaf beetle) in compound-treated cucumber leaf assessed as mortality at 8 ppm after 2 to 7 days. The assay is classed as functional.
Assay [8] has as its system Periplaneta americana. The assay can be described thus: Insecticidal activity against Periplaneta americana (American cockroach) compound administered through injection into abdomen in presence of piperonyl butoxide and NIA 16388. The class given is functional.
Assay [9] has as its system Musca domestica. The assay can be described thus: Insecticidal activity against Musca domestica (house fly) compound administered through injection in presence of piperonyl butoxide and NIA 16388. The assay is classed as functional.
The test system of assay [10] is Musca domestica. The assay can be described thus: Insecticidal activity against Musca domestica (house fly) compound administered through injection. The assay is classed as functional.
The subject of assay [11] is Periplaneta americana. The assay can be described thus: Neuroblocking potency in Periplaneta americana (American cockroach) admoninal central nerve cod. The class given is functional.
Assay [12] relates to Myzus persicae. As to the kind of experiment: Insecticidal activity against Myzus persicae (green peach aphid) in two-leaf stage eggplant assessed as mortality at 8 ppm after 7 days. The class given is functional. To be noted: 168 h.

As a reminder, the mortality is the share of the test organisms that died. Turning to `C[C@H](c1ccc(Cl)nc1)N1CCN/C1=N\[N+](=O)[O-]` [(R)-METHYL-IMIDACLOPRID], the MLD is given as 42 nmol in the assay with Periplaneta americana [1], 0.83 nmol with Periplaneta americana [8], 2.3 pmol in the assay on Musca domestica [9] and 55 pmol with Musca domestica [10]. Also, the results for the mortality at 1.6 ppm in the assay on Myzus persicae [2], in the assay with Nephotettix cincticeps [3] and in the assay on Aulacophora [4] were 60%, 100% and 50%, respectively. The Activity in assay [5] came out at 0.95 µM; in the assay on Periplaneta americana [11], 73 µM. Besides, the mortality at 8 ppm is 100% in the assay on Nephotettix cincticeps [6], 90% in the assay on Aulacophora [7] and 90% in the assay with Myzus persicae [12].
Turning to `C[C@@H](c1ccc(Cl)nc1)N1CCN/C1=N\[N+](=O)[O-]` [(S)-METHYL-IMIDACLOPRID], the MLD amounted to 30 nmol in the assay with Periplaneta americana [1], 0.93 nmol in the assay on Periplaneta americana [8], 1.1 pmol in the assay with Musca domestica [9] and 45 pmol in the assay on Musca domestica [10]. The values for the mortality at 1.6 ppm in the assay with Myzus persicae [2], in the assay on Nephotettix cincticeps [3] and in the assay with Aulacophora [4] were 40%, 90% and 100%, respectively. Besides, the Activity in assay [5] was determined as 0.19 µM; in the assay on Periplaneta americana [11], 5.9 µM. In addition, the mortality at 8 ppm in the assay with Nephotettix cincticeps [6] was 100%; in the assay with Aulacophora [7] it was 100%; with Myzus persicae [12] it was 60%.
Take `O=[N+]([O-])/N=C1\NCCN1Cc1ccc(Cl)nc1` [IMIDACLOPRID]: the MLD was 1.1 nmol with Periplaneta americana [1], 0.07 nmol in the assay with Periplaneta americana [8], 0.26 pmol in the assay on Musca domestica [9] and 2.2 pmol in the assay on Musca domestica [10]. The mortality at 1.6 ppm in the assay on Myzus persicae [2], with Nephotettix cincticeps [3] and in the assay with Aulacophora [4] was 100% throughout. In addition, the Activity in [5] came to 0.02 µM; in the assay on Periplaneta americana [11], 2.3 µM. The mortality at 8 ppm with Nephotettix cincticeps [6], in the assay on Aulacophora [7] and with Myzus persicae [12] was 100% in each case.
On to `CN1CCC[C@H]1c1cccnc1` [NICOTINE], for which the results for the MLD in the assay with Periplaneta americana [1] and with Periplaneta americana [8] were 490 nmol and 310 nmol, respectively. Besides, the Activity in assay [5] was determined as 11.9 µM.
On to `CN1CCC[C@@H]1c1cccnc1` [R-NICOTINE], for which the results for the MLD with Periplaneta americana [1] and in the assay on Periplaneta americana [8] were 320 nmol and 160 nmol, respectively. In [5], this compound yielded an Activity of 422 µM.
